Source: article PMC4360375 (Journal of Medicinal Chemistry, 2015)

Test system: GABA uptake, rat synaptosome
Test: not given
Settings: literature data set; ref 10.1016/S0968-0896(01)00148-1; cited from earlier work

Compound	pIC50
O=C(O)[C@@H]1CCCN(CCOCCc2ccccc2Cc2ccccc2)C1 [An_2001/6_40, O(CCc1ccccc1Cc1ccccc1)CCN1C[C@@H](CCC1)C(O)=O]	7
O=C(O)[C@@H]1CCCN(CCOC/C(=C\c2ccccc2)c2ccccc2)C1 [An_2001/6_42, O(CCN1C[C@@H](CCC1)C(O)=O)C\C(=C/c1ccccc1)\c1ccccc1]	5.523
O=C(O)[C@@H]1CCCN(CCOCCc2ccccc2-c2ccccc2)C1 [An_2001/6_39, O(CCc1ccccc1-c1ccccc1)CCN1C[C@@H](CCC1)C(O)=O]	6.959

Same assay, conditions: literature data set; ref 10.1021/jm00064a005; cited from earlier work

Compound	pIC50
Cc1ccsc1C(=CCCN1CCC[C@@H](C(=O)O)C1)c1sccc1C [compound 5, tiagabine]	7.174
Cc1ccccc1/C(=C\CCN1CCC[C@H](C(=O)O)C1)c1sccc1C [An_1993_32, s1ccc(C)c1/C(=C/CCN1C[C@H](CCC1)C(O)=O)/c1ccccc1C]	6.42
Cc1ccsc1/C(=C/CCN1CCC[C@H](C(=O)O)C1)c1cccs1 [An_1993_41, s1ccc(C)c1\C(=C\CCN1C[C@H](CCC1)C(O)=O)\c1sccc1]	6.161
Cc1cc(Cl)ccc1/C(=C\CCN1CCC=C(C(=O)O)C1)c1sccc1C [An_1993_45, Clc1cc(C)c(cc1)\C(=C/CCN1CC(=CCC1)C(O)=O)\c1sccc1C]	6.523

Same assay, conditions: literature data set; ref 10.1021/jm980492e; cited from earlier work

Compound	pIC50
Cc1ccccc1C(=CCOCCN1CCC[C@@H](C(=O)O)C1)c1ccccc1C [An_1999/4_(R)-23, O(CCN1C[C@@H](CCC1)C(O)=O)C\C=C(\c1ccccc1C)/c1ccccc1C]	6.959
O=C(O)[C@@H]1CCCN(CCOCCC(c2ccc(F)cc2)c2ccc(F)cc2)C1 [An_1999/4_(R)-33, Fc1ccc(cc1)C(CCOCCN1C[C@@H](CCC1)C(O)=O)c1ccc(F)cc1]	6.167
O=C(O)C1=CCCN(CCOCCC(c2ccccc2)c2ccccc2)C1 [An_1999/4_30, O(CCC(c1ccccc1)c1ccccc1)CCN1CC(=CCC1)C(O)=O]	7.319
Cc1ccccc1/C(=C/COCCN1CCC[C@@H](C(=O)O)C1)c1ccccc1 [An_1999/4_(R)-22, O(CCN1C[C@@H](CCC1)C(O)=O)C\C=C(\c1ccccc1C)/c1ccccc1]	6.62

Same assay, conditions: literature data set; ref 10.1021/jm981027k; cited from earlier work

Compound	pIC50
Cc1csc(/C(=N\OCCN2CCC[C@H](C(=O)O)C2)c2ccccc2C)c1 [An_1999/3_23, s1cc(cc1/C(=N\OCCN1C[C@H](CCC1)C(O)=O)/c1ccccc1C)C]	5.917
CCc1ccccc1C(=NOCCN1CCC=C(C(=O)O)C1)c1ccccc1CC [An_1999/3_88, O(\N=C(\c1ccccc1CC)/c1ccccc1CC)CCN1CC(=CCC1)C(O)=O]	6.745
O=C(O)[C@@H]1CCCN(CCOC=C(c2cccc(Cl)c2)c2cccc(Cl)c2)C1 [An_1999/3_112, Clc1cc(ccc1)\C(=C\OCCN1C[C@@H](CCC1)C(O)=O)\c1cc(Cl)ccc1]	6.699
Cc1ccsc1C(=NOCCN1CCC[C@H](C(=O)O)C1)c1sccc1C [An_1999/3_80, s1ccc(C)c1\C(=N\OCCN1C[C@H](CCC1)C(O)=O)\c1sccc1C]	7.097
Cc1ccccc1/C(=C/OCCN1CCC[C@@H](C(=O)O)C1)c1sccc1C [An_1999/3_69, s1ccc(C)c1/C(=C\OCCN1C[C@@H](CCC1)C(O)=O)/c1ccccc1C]	7.77
O=C(O)C1=CCCN(CCON=C(c2ccccc2)c2ccccc2)C1 [NO-711, O(\N=C(\c1ccccc1)/c1ccccc1)CCN1CC(=CCC1)C(O)=O]	7.328
COc1cccc(/C(=C/OCCN2CCC[C@@H](C(=O)O)C2)c2ccccc2C)c1 [An_1999/3_102, O(C)c1cc(ccc1)/C(=C/OCCN1C[C@@H](CCC1)C(O)=O)/c1ccccc1C]	7.097
Cc1ccccc1C(=NOCCN1CCC=C(C(=O)O)C1)c1ccccc1C [An_1999/3_64, O(\N=C(\c1ccccc1C)/c1ccccc1C)CCN1CC(=CCC1)C(O)=O]	7.222
O=C(O)[C@@H]1CCCN(CCOC=C(c2cc(F)ccc2F)c2cc(F)ccc2F)C1 [An_1999/3_107, Fc1ccc(F)cc1\C(=C\OCCN1C[C@@H](CCC1)C(O)=O)\c1cc(F)ccc1F]	6.745
Cc1ccccc1/C(=N/OCCN1CCC[C@H](C(=O)O)C1)c1sccc1C [An_1999/3_82, s1ccc(C)c1/C(=N\OCCN1C[C@H](CCC1)C(O)=O)/c1ccccc1C]	7.097

Same assay, conditions: literature data set; ref 10.1021/jm990513k; cited from earlier work

Compound	pIC50
O=C(O)[C@@H]1CCCN(CCOCCN2c3ccc(F)cc3CCc3cc(F)ccc32)C1 [An_2001/5_30, Fc1cc2CCc3cc(F)ccc3N(c2cc1)CCOCCN1C[C@@H](CCC1)C(O)=O]	6.602
O=C(O)[C@@H]1CCCN(CCOCC=C2c3ccccc3CCc3ccccc32)C1 [An_2001/5_34, O(CCN1C[C@@H](CCC1)C(O)=O)C\C=C/1\c2c(CCc3c\1cccc3)cccc2]	6.114
O=C(O)[C@@H]1CCCN(CCOCCN2c3ccccc3C=Cc3ccccc32)C1 [An_2001/5_26, O(CCN1C[C@@H](CCC1)C(O)=O)CCN1c2c(C=Cc3c1cccc3)cccc2]	6.187
O=C(O)C1=CCCN(CCOCCN2c3ccccc3CCc3ccccc32)C1 [An_2001/5_24, O(CCN1CC(=CCC1)C(O)=O)CCN1c2c(CCc3c1cccc3)cccc2]	6.194
O=C(O)[C@@H]1CCCN(CCOCCN2c3cc(Cl)ccc3CCc3ccc(Cl)cc32)C1 [An_2001/5_28, Clc1cc2N(c3cc(Cl)ccc3CCc2cc1)CCOCCN1C[C@@H](CCC1)C(O)=O]	7.155

Test system: other neurotransmitter reuptake systems (dopamine, serotonin, choline, aspartate)
Test: not given
Parameters: method as in PMID 3509068
Settings: cited from earlier work

Compound	activity on other neurotransmitter reuptake systems
liothyronine [27a]	without major activity

Test system: not given
Test: not given
Parameters: method as in PMID 10903390
Settings: cited from earlier work

Compound	blood-brain barrier penetration
O=C(O)C1CCCNC1 (centres unmarked) [compound 2, nipecotic acid]	unable to penetrate the blood–brain barrier
O=C(O)C1=CCCNC1 [compound 3, guvacine]	unable to penetrate the blood–brain barrier

Target: T1, rGAT1 (Rattus norvegicus, UniProt P23978)
T1 construct: Y prefix of 'YrGAT-1' (own knowledge: yellow fluorescent protein, YFP, fused to rGAT1 in this group's constructs); expressed in transfected cells; host or cells: HEK293
Test: [3H]-GABA uptake inhibition assay in HEK293 cells stably expressing rGAT1
Assay type: cell-based
Settings: 100 μM compound

Compound	effect on [3H]-GABA uptake, in words
N[C@@H](Cc1cc(I)c(Oc2cc(I)c(O)c(I)c2)c(I)c1)C(=O)O [27b, levothyroxine]	reduced uptake, albeit weaker than 27a
bepotastine [compound 25]	inactive
O=C(CCN1CCCC1C(=O)O)Nc1ccccc1Oc1ccccc1 (centres unmarked) [compound 18]	some weak activity
ramipril [compound 26]	inactive

Same assay, conditions: 100 μM compound; listed as bepotastine

Compound	effect on [3H]-GABA uptake, in words
bepotastine [compound 25]	essentially inactive

Same assay, conditions: 100 μM of the respective compound; n = 3; relative to saline

Compound	% uptake (remaining uptake of [3H]-GABA) [%]
bepotastine [compound 25]	103.8
ramipril [compound 26]	107.7

Same assay, conditions: HEK293, 100 μM of the respective compound; n = 3; relative to saline

remaining activity at 100 µM [%]	Compound
99	O=C(O)CN1CCC(CCc2ccccc2C(F)(F)F)CC1 [compound 14]
54.2	N[C@@H](Cc1cc(I)c(Oc2cc(I)c(O)c(I)c2)c(I)c1)C(=O)O [27b, levothyroxine]
95.1	O=C(O)CN1CCCC1Cc1ccccc1Cl (centres unmarked) [compound 16]
108	NC(CSCc1cccc2ccccc12)C(=O)O (centres unmarked) [compound 23]
105	CCC(CC)OC1C=C(C(=O)O)CC(N)C1NC(C)=O (centres unmarked) [compound 24]
105	CCN(CCC(=O)O)Cc1nc2c(C)cccc2c(=O)[nH]1 [compound 12]
104	CC(C(=O)O)N1CCCN(C(=O)c2ccccc2C(F)(F)F)CC1 (centres unmarked) [compound 15]
91	Fc1cc(Br)cc(CN2CCCC(c3nnn[nH]3)C2)c1 (centres unmarked) [compound 19]
93.9	Cc1nn(Cc2ccccc2Cl)c(C)c1CN(C)C(C)C(=O)O (centres unmarked) [compound 20]
79.3	O=C(CCN1CCCC1C(=O)O)Nc1ccccc1Oc1ccccc1 (centres unmarked) [compound 18]
93.2	CC(C(=O)Nc1ccc(Br)cc1Br)N1CCCC(CC(=O)O)C1 (centres unmarked) [compound 13]
127	N[C@H](Cc1cc(I)c(Oc2cc(I)c(O)c(I)c2)c(I)c1)C(=O)O [27c, dextrothyroxine]
94.7	O=C(CN1CCC[C@H]1C(=O)O)NC(c1ccc(F)cc1)c1cccs1 (some centres unmarked) [compound 21]
104	Cc1cc(S(=O)(=O)N2CCN(CCC(=O)O)CC2)ccc1Br [compound 22]
